We go through 17 compounds from ChEMBL document CHEMBL2321867, “Synthesis and structure-activity relationships of 2-hydrazinyladenosine derivatives as A(2A) adenosine receptor ligands” (Bioorg Med Chem, 2013).

By inhibition is commonly meant the share of the control response that was lost under treatment. Broadly, the pKi is the negative decadic logarithm of the Ki, by convention in mol/L. What is called pEC50 is −log10 of the EC50, conventionally taken in molar units.

The target in experiment [1] is Adenosine receptor A2a (Rattus norvegicus) (UniProt P30543). The experiment in a line: Displacement of [3H]CGS21680 from adenosine A2A receptor in rat brain striatal membrane at 1 uM after 60 mins by liquid scintillation counting analysis. Format: cell membranes. For orientation: Displacement assays read how much labelled ligand stays bound in the presence of the test substance.

Experiment [2] deals with Adenosine receptor A2a (Rattus norvegicus, UniProt P30543). Description: Displacement of [3H]CGS21680 from adenosine A2A receptor in rat brain striatal membrane after 60 mins by liquid scintillation counting analysis. In kind it is cell membranes.
Experiment [3] has as its target T1, Adenosine receptor A1 (Homo sapiens, UniProt P30542).
T1 sequence (P30542 whole entry): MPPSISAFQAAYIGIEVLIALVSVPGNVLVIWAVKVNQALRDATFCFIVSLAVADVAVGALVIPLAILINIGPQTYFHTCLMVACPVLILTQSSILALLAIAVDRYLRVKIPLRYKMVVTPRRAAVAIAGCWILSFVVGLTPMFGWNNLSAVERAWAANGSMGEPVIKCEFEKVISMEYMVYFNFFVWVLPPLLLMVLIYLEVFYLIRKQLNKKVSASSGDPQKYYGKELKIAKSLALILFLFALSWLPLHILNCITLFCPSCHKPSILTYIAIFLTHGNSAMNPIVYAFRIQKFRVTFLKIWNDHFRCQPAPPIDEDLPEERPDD
Description: Displacement of [3H]CCPA from human recombinant adenosine A1 receptor expressed in CHO cells 90 mins by liquid scintillation counting analysis. Format: cell-based.

Experiment [4] has as its target Adenosine receptor A2a (Homo sapiens, UniProt P29274). The experiment in a line: Agonist activity at human recombinant adenosine A2A receptor expressed in CHO cells assessed as [3H]cAMP accumulation after 15 mins by liquid scintillation counting. Format: functional, cell-based.
Experiment [5] concerns the target T2, Adenosine receptor A3 (Homo sapiens, UniProt P0DMS8).
T2 sequence (P0DMS8 whole entry): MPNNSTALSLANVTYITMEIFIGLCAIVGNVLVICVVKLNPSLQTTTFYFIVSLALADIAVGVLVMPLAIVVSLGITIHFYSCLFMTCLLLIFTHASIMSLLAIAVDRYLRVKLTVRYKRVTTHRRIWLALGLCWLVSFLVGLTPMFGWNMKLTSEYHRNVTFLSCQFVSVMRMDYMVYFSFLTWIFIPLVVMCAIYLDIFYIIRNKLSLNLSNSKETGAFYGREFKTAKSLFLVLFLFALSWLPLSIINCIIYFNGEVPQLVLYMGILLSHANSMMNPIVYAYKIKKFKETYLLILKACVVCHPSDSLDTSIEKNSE
The experiment in a line: Displacement of [3H]NECA from human recombinant adenosine A3 receptor.

Experiment [6] deals with T2, Adenosine receptor A3. Description: Displacement of [3H]NECA from human recombinant adenosine A3 receptor expressed in CHO cells after 180 mins by liquid scintillation counting analysis. In kind it is cell-based.
The target of experiment [7] is T3, Adenosine receptor A2b (Homo sapiens) (UniProt P29275).
T3 sequence (whole entry): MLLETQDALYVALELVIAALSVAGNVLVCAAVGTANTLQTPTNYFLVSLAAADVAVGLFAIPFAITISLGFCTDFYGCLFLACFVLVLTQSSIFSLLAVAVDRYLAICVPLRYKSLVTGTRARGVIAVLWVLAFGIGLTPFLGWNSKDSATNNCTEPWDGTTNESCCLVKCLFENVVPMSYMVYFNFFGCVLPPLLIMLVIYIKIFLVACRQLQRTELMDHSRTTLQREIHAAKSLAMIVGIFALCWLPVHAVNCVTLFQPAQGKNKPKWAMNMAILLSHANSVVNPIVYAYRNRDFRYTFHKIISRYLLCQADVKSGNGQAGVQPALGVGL
Description: Displacement of [3H]PSB-603 from human recombinant adenosine A2B receptor expressed in CHO cells at 10 uM after 75 mins by liquid scintillation counting analysis. Format: cell-based.

Experiment [8] addresses T4, Adenosine receptor A1 (Rattus norvegicus, UniProt P25099).
T4 sequence (P25099 whole entry): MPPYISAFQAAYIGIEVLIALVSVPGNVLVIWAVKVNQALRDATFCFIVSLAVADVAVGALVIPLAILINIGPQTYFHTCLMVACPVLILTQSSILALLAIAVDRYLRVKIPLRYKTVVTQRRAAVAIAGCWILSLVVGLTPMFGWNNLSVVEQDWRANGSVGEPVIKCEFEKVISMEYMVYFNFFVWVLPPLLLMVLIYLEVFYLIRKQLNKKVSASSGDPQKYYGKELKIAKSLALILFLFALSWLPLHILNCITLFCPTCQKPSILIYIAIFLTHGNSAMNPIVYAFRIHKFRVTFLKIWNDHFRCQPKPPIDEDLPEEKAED
Description: Displacement of [3H]CCPA from adenosine A1 receptor in rat brain cortical membrane after 90 mins by liquid scintillation counting analysis. In kind it is cell membranes.

Experiment [9] has as its target T1, Adenosine receptor A1.
Experiment [10] deals with T5, Adenosine receptor A3 (Homo sapiens) (UniProt P0DMS8).
T5 sequence (whole entry): T2 sequence (P0DMS8 whole entry)
Description: Displacement of [3H]NECA from human recombinant adenosine A3 receptor expressed in CHO cells at 1 uM after 180 mins by liquid scintillation counting analysis. In kind it is cell-based.

Experiment [11] has as its target T6, Adenosine receptor A1 (Rattus norvegicus) (UniProt P25099).
T6 sequence (whole entry): T4 sequence (P25099 whole entry)
Description: Displacement of [3H]CCPA from adenosine A1 receptor in rat brain cortical membrane at 1 uM after 90 mins by liquid scintillation counting analysis. Format: cell membranes.

pEC50, pKi: −log10 of the molar value.

Chain of Adenosine receptor A2a (Rattus norvegicus) (P30543 whole entry): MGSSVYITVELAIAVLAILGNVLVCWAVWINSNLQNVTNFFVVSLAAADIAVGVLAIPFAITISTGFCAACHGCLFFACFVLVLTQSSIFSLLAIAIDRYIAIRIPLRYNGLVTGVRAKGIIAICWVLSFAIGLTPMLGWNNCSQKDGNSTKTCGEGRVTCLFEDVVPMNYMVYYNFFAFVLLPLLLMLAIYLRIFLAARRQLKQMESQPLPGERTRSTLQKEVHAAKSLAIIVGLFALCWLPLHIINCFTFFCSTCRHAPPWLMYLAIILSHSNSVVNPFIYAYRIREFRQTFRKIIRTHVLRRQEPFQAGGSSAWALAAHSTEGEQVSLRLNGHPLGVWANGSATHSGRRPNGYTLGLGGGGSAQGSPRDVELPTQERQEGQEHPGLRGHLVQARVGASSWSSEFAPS
Chain of Adenosine receptor A2a (Rattus norvegicus, UniProt P30543) (P30543 whole entry): as above
Chain of Adenosine receptor A2a (Homo sapiens, UniProt P29274) (P29274 whole entry): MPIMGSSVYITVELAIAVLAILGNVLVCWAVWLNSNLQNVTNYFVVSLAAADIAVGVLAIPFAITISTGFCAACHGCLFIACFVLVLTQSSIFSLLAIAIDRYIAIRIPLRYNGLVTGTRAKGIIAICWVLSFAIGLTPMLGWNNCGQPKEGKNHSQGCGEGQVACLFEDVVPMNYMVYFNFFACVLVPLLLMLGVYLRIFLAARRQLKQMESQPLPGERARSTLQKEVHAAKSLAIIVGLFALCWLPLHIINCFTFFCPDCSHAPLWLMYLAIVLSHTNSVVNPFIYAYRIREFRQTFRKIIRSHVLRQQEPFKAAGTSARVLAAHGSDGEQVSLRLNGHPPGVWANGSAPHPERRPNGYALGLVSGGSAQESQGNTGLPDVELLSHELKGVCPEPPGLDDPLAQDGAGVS

With `Nc1nc(N/N=C(\CO)[C@H](O)[C@@H](O)[C@@H](O)CO)nc2c1ncn2[C@@H]1O[C@H](CO)[C@@H](O)[C@H]1O`, the inhibition in experiment [1] is 34%. Further, the pKi in experiment [2] is < 6.00.

Turning to `CN(/N=C/[C@H](O)[C@@H](O)[C@@H](O)[C@H](O)CO)c1nc(N)c2ncn([C@@H]3O[C@H](CO)[C@@H](O)[C@H]3O)c2n1`, the inhibition in experiment [1] came to 25%. Moreover, in experiment [2], the pKi is < 6.00.

`COc1ccc(/C=N/Nc2nc(N)c3ncn([C@@H]4O[C@H](CO)[C@@H](O)[C@H]4O)c3n2)cc1`: the figures for the pKi in experiment [2] and in experiment [3] were 7.92 and 6.14, respectively.

`Nc1nc(N/N=C/c2ccc(Cl)c(Cl)c2)nc2c1ncn2[C@@H]1O[C@H](CO)[C@@H](O)[C@H]1O`: the pEC50 in experiment [4] is 5.78. Also, the pKi in experiment [2] was 7.61.

As to `Nc1nc(N/N=C/[C@@H](O)[C@H](O)[C@H](O)[C@@H](O)CO)nc2c1ncn2[C@@H]1O[C@H](CO)[C@@H](O)[C@H]1O`, in experiment [4], the pEC50 is 5.84. The compound further gave a pKi in experiment [2] of 6.48.

For the compound `Nc1nc(N/N=C/c2ccc(Cl)cc2O)nc2c1ncn2[C@@H]1O[C@H](CO)[C@@H](O)[C@H]1O`, the pKi in experiment [2] is 7.04.

In experiment [1], `Nc1nc(N/N=C/[C@H](O)[C@H](O)[C@@H](O)[C@@H](O)CO)nc2c1ncn2[C@@H]1O[C@H](CO)[C@@H](O)[C@H]1O` returned an inhibition of 33%. The pKi in experiment [2] was < 6.00.

Consider `Nc1nc(N/N=C/[C@@H](O)[C@@H](O)[C@@H](O)CO)nc2c1ncn2[C@@H]1O[C@H](CO)[C@@H](O)[C@H]1O`, for which, in [1], the inhibition is 33%. Also, the pKi in experiment [2] was < 6.00.

With `Nc1nc(N/N=C/[C@@H](O)[C@H](O)[C@@H](O)[C@@H](O)CO)nc2c1ncn2[C@@H]1O[C@H](CO)[C@@H](O)[C@H]1O`, in [1], the inhibition worked out at 42%. In experiment [2], the pKi is < 6.00.

Consider `CN(NC(=O)Nc1ccccc1)c1nc(N)c2ncn([C@@H]3O[C@H](CO)[C@@H](O)[C@H]3O)c2n1`, for which, in experiment [1], the inhibition was 11%. Besides, in experiment [2], the pKi is < 6.00.

Take `CN(/N=C/[C@H](O)[C@H](O)[C@@H](O)[C@@H](O)CO)c1nc(N)c2ncn([C@@H]3O[C@H](CO)[C@@H](O)[C@H]3O)c2n1`: the inhibition in experiment [1] came out at 2%. For the same compound, the pKi in [2] is < 6.00.

In the case of `Nc1nc(N/N=C/C2CCCCC2)nc2c1ncn2[C@@H]1O[C@H](CO)[C@@H](O)[C@H]1O` [BINODENOSON], the pKi in experiment [5] was 6.04; in [6], 7.28; in experiment [2], 7.59; in experiment [3], 6.77; in [8], 7.15; in [9], 4.32. The inhibition in [7] was determined as 17%.

In [1], `CN(/N=C/[C@@H](O)[C@@H](O)[C@@H](O)CO)c1nc(N)c2ncn([C@@H]3O[C@H](CO)[C@@H](O)[C@H]3O)c2n1` displayed an inhibition of 7%. For the same compound, in experiment [2], the pKi was < 6.00.

Compound `CN(/N=C(\CO)[C@H](O)[C@@H](O)[C@@H](O)CO)c1nc(N)c2ncn([C@@H]3O[C@H](CO)[C@@H](O)[C@H]3O)c2n1` returned an inhibition in experiment [1] of 25%. In addition, the negative logarithm of the Ki (pKi) in experiment [2] was < 6.00.

Compound `CN(/N=C/[C@@H](O)[C@H](O)[C@@H](O)[C@@H](O)CO)c1nc(N)c2ncn([C@@H]3O[C@H](CO)[C@@H](O)[C@H]3O)c2n1` displayed an inhibition in experiment [1] of 31%. In addition, the pKi in [2] was < 6.00.

`Nc1nc(N/N=C/c2ccc(Cl)cc2)nc2c1ncn2[C@@H]1O[C@H](CO)[C@@H](O)[C@H]1O`: the pKi in experiment [2] was 7.79.

Consider `CN(NC(=S)Nc1ccccc1)c1nc(N)c2ncn([C@@H]3O[C@H](CO)[C@@H](O)[C@H]3O)c2n1`, for which the results for the inhibition in [10], in experiment [1] and in experiment [11] were 36%, 16% and 1%, respectively. The pKi in [6], in experiment [2] and in experiment [8] was < 6.00 each time.
